From patent publication US9499529B2 (California State University Fresno, priority 2013, dated 2016)

Tests used:
[1] = system: HeLa cervical cancer cells; experiment: HeLa cell viability after treatment with analog (cell count, cell viability analyzer); type: cell-based, human; conditions: for HeLa Cell viability after treatment with analog (% viability): three days, relative to DMSO vehicle
Experimental: Cell numbers were counted with a cell viability analyzer (Beckman-Coulter). The ratio of drug treated viable cell numbers to control vehicle (DMSO) treated viable cell numbers was defined as percentage viability. […] Compound nos.
The HeLa cells used in the experiments summarized by Table 5 were cultured in RPMI-1640 medium supplemented with 10% FBS, 4 mM glutamine, 1 mM sodium pyruvate, 100 IU/mL penicillin, 100 ug/mL streptomycin and 0.25 ug/mL amphotericin. The HeLa cells were plated in 24-well plates at a density of 20,000 cells in each well in 10% FBS RPMI-1640. […] Cell numbers were counted with a cell viability analyzer (Beckman-Coulter). […]

[2] = system: PC-3 prostate cancer cells; experiment: In vitro cytotoxicity against PC-3 prostate cancer cells; type: cell-based, human; conditions: PC-3 cells, five days
Experimental: (§1) The half maximal inhibitory concentration (IC50) is a measure of the effectiveness of a substance in inhibiting a specific biological or biochemical function. It is commonly used as a measure of antagonist drug potency.
Cell cultures were maintained in 5% carbon dioxide at a temperature of 37° C. […] Cell numbers were counted with a cell viability analyzer (Beckman-Coulter). […] A preliminary dose response curve was prepared from the collected data by means well known to those of ordinary skill in the art.
(§2) The six different concentrations fell within a selected linear concentration range determined by reference to the preliminary dose response curve and efforts to estimate the concentration at which 50% of the cell growth would be inhibited. The selected six different concentrations were used to further fill out the dose response curve to pinpoint a more exact IC50 value.

[3] = system: DU-145 prostate cancer cells; experiment: In vitro cytotoxicity against DU-145 prostate cancer cells; type: cell-based, human; conditions: DU-145 cells, five days
Experimental: as §1
Cell numbers were counted with a cell viability analyzer (Beckman-Coulter).
(§3) A preliminary dose response curve was prepared from the collected data by means well known to those of ordinary skill in the art.
as §2

[4] = system: HeLa cervical cancer cells; experiment: In vitro cytotoxicity against HeLa cervical cancer cells; type: cell-based, human; conditions: for IC50: three days
Experimental: as §1
(§4) Cell numbers were counted with a cell viability analyzer (Beckman-Coulter). The ratio of drug treated viable cell numbers to vehicle treated viable cell numbers was defined as percentage viability.
as §3, §2

[5] = system: MCF-10A normal mammary epithelial cells; experiment: Cytotoxicity towards non-cancerous MCF-10A cells (FIG. 9); type: cell-based; conditions: for cytotoxicity towards MCF-10A normal mammary epithelial cells (in words): 0.1 μM, and 0.01 μM
Experimental: The MCF-10A normal mammary epithelial cells were cultured in RPMI-1640 medium supplemented with 10% FBS, 4 mM glutamine, 1 mM sodium pyruvate, 100 IU/mL penicillin, 100 ug/mL streptomycin and 0.25 ug/mL amphotericin. The MCF-10A cells were plated in 24-well plates at a density of 20,000 each well in 10% FBS RPMI-1640 or DMED medium. […] Cell numbers were counted with a cell viability analyzer (Beckman-Coulter).

[6] = system: MDA-MB-231 breast cancer cells; experiment: In vitro cytotoxicity toward MDA-MB-231 cells; type: cell-based; conditions: Homo sapiens, 120 h, five days, read-out: IC50 (analog)
Text: as §4

[7] = system: A549 non-small cell lung cancer cells; experiment: In vitro cytotoxicity toward A549 cells; type: cell-based; conditions: Homo sapiens, 120 h, between three and five days, read-out: IC50 (analog)
Text: as §4

[8] = system: PC-3 prostate cancer cell line; conditions: cited from earlier work
[9] = Homo sapiens, HeLa, 72 h, read-out: HeLa Cell viability after treatment with analog (% viability)

| Structure (SMILES) | HeLa Cell viability after treatment with analog (% viability) ([1]; 1 μM) | HeLa Cell viability after treatment with analog (% viability) ([1]; 10 μM) | IC50 [2] | IC50 [3] | IC50 (curcumin)/IC50 (analog) [4] | IC50 [4] | survival of MCF-10A cells ([5]; 0.01 μM, five days, FIG. 9) | survival of MCF-10A cells ([5]; 0.1 μM, five days, FIG. 9) | cytotoxicity towards MCF-10A normal mammary epithelial cells (in words) ([5]; 1 μM, FIG. 9) | survival of MCF-10A cells ([5]; 1 μM, five days, FIG. 9) | viability at 1 µM [1, 9] | IC50 [6] | IC50 [7] | potency towards PC-3 prostate cancer cell line relative to curcumin [8] | further results |
| --- | --- | --- | --- | --- | --- | --- | --- | --- | --- | --- | --- | --- | --- | --- | --- |
| CCC(C)n1ccnc1/C=C/C(=O)/C=C/c1nccn1C(C)CC (stereo not drawn) [Compound 21] | 81.8% | 17.7% | 63 nM | 35 nM | 16 | 654 nM | 100% | about 90% | no apparent cytotoxicity | about 80% | – | – | – | – | – |
| CC(C)Cn1ccnc1/C=C/C(=O)/C=C/c1nccn1CC(C)C [Compound 22] | 34.1% | 23.1% | 46 nM | 57 nM | 24 | 430 nM | 100% | about 85% | no apparent cytotoxicity | about 85% | – | – | – | – | – |
| Cc1cc(/C=C/C(=O)/C=C/c2cc(C)no2)on1 [Compound 28, (1E,4E)-1,5-Bis(3-methylisoxazol-5-yl)penta-1,4-dien-3-one] | – | – | 41 nM | 16 nM | – | 226 nM | about 90% | about 90% | – | about 85% | 28% | 156 nM | 160 nM | – | melting point: 167 to 169 °C |
| COc1cc(/C=C/C(=O)/C=C/c2ccc(O)c(OC)c2)ccc1O [FLLL11] | – | – | – | – | – | – | – | – | – | – | – | – | – | more potent than curcumin | – |
| COc1cc(/C=C/C(=O)/C=C/c2cc(OC)c(O)c(OC)c2)cc(OC)c1O [FLLL12] | – | – | – | – | – | – | – | – | – | – | – | – | – | more potent than curcumin | – |
| COc1cc(/C=C/C(=O)CC(=O)/C=C/c2ccc(O)c(OC)c2)ccc1O [curcumin, reference compound] | – | – | – | – | – | – | – | – | – | – | 100% | 880 nM | 15000 nM | – | viability at 10 µM [1, 9]: 42.5%; IC50 ([2]; Homo sapiens, PC-3, 120 h): 1980 nM; IC50 ([3]; Homo sapiens, DU-145, 120 h): 300 nM; IC50 ([4]; Homo sapiens, HeLa, 72 h): 10500 nM; survival of MCF-10A cells ([5]; human, 5 days, 0.01 µM): 100%; survival of MCF-10A cells ([5]; human, 5 days, 0.1 µM): about 95%; survival of MCF-10A cells ([5]; human, 5 days, 1 µM): about 95% |
